Where two headings read alike, the source gives them in different places.
Tests used:
Assay in all cases: Kinase panel
Assay type in all cases: biochemical
[1] = target: T1, PASK(h) (Homo sapiens, UniProt Q96RG2)
T1 construct: purchased Millipore KinaseProfiler

[2] = target: T2, NEK3(h) (Homo sapiens, UniProt P51956)
T2 construct: purchased Millipore KinaseProfiler
T2 sequence (P51956 1-506): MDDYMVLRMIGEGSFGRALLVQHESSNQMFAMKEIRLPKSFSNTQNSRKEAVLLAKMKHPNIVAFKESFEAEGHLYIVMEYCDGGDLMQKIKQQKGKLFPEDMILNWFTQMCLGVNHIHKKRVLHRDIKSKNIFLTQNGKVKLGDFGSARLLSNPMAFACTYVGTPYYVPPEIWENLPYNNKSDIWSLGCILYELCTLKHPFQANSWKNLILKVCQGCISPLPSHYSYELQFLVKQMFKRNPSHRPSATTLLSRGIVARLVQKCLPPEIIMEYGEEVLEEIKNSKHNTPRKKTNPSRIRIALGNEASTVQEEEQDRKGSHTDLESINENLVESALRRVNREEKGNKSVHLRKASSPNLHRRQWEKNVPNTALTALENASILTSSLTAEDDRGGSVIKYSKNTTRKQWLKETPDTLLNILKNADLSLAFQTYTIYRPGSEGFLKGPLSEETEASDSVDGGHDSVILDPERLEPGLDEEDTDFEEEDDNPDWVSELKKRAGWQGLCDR

[3] = target: T3, GRK5(h) (Homo sapiens, UniProt P34947)
T3 construct: purchased Millipore KinaseProfiler

[4] = target: T4, cKit(D816H)(h) (Homo sapiens, UniProt P10721, D816H)
T4 construct: purchased Millipore KinaseProfiler

[5] = target: T5, TAO2(h) (Homo sapiens, UniProt Q9UL54)
T5 construct: purchased Millipore KinaseProfiler
T5 sequence (Q9UL54 1-1235): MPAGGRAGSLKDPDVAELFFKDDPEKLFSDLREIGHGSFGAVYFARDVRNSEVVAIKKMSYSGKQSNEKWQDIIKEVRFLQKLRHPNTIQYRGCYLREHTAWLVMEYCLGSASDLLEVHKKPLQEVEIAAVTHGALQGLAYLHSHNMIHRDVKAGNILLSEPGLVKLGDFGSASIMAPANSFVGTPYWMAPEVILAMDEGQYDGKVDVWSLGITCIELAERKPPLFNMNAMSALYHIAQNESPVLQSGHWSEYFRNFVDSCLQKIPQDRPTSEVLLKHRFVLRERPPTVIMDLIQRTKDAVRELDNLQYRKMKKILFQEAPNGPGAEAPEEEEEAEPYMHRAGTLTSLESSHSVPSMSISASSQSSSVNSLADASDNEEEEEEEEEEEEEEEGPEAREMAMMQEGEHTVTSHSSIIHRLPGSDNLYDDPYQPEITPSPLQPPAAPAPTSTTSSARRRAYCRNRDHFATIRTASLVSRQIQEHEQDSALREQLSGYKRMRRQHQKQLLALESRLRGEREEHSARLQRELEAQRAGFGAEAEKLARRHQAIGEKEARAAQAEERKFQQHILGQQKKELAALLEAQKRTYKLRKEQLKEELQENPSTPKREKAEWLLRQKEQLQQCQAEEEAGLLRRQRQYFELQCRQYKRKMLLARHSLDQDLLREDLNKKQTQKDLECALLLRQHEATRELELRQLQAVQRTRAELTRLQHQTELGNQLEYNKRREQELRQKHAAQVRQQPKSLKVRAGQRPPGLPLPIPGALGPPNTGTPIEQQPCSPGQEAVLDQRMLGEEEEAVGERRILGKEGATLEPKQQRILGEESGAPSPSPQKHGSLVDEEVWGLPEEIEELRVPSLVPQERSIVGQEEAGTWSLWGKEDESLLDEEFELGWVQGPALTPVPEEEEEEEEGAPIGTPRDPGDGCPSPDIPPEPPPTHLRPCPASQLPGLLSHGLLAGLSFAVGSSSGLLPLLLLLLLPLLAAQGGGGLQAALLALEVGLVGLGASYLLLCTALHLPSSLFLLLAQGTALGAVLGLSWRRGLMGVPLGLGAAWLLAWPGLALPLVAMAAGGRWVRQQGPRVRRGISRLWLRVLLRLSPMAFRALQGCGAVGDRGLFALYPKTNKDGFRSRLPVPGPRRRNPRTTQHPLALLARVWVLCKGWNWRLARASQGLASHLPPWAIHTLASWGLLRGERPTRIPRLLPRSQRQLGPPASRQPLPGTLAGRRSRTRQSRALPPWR

[6] = target: T6, PKG1β(h) (Homo sapiens, UniProt Q13976)
T6 construct: purchased Millipore KinaseProfiler
T6 sequence (Q13976 1-686 isoform Q13976-2): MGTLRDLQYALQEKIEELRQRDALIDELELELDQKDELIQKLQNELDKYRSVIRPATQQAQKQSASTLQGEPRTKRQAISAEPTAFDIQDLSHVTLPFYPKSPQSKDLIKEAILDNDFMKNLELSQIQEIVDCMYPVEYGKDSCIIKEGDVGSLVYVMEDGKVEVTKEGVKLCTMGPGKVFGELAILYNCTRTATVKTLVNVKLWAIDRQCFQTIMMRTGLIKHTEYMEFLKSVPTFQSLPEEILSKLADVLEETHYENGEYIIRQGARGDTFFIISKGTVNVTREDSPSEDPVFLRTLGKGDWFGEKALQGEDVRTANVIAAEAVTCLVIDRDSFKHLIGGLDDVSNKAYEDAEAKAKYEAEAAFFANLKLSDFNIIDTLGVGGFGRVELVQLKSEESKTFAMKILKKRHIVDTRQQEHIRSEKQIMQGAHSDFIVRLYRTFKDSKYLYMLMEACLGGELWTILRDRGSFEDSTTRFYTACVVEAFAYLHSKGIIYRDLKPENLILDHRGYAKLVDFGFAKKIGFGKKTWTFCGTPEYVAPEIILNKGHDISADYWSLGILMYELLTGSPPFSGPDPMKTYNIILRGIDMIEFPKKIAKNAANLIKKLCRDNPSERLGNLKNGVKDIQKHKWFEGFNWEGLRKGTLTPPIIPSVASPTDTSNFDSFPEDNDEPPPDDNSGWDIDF

[7] = target: T7, ALK(h) (Homo sapiens, UniProt Q9UM73)
T7 construct: purchased Millipore KinaseProfiler
T7 sequence (Q9UM73 19-1620): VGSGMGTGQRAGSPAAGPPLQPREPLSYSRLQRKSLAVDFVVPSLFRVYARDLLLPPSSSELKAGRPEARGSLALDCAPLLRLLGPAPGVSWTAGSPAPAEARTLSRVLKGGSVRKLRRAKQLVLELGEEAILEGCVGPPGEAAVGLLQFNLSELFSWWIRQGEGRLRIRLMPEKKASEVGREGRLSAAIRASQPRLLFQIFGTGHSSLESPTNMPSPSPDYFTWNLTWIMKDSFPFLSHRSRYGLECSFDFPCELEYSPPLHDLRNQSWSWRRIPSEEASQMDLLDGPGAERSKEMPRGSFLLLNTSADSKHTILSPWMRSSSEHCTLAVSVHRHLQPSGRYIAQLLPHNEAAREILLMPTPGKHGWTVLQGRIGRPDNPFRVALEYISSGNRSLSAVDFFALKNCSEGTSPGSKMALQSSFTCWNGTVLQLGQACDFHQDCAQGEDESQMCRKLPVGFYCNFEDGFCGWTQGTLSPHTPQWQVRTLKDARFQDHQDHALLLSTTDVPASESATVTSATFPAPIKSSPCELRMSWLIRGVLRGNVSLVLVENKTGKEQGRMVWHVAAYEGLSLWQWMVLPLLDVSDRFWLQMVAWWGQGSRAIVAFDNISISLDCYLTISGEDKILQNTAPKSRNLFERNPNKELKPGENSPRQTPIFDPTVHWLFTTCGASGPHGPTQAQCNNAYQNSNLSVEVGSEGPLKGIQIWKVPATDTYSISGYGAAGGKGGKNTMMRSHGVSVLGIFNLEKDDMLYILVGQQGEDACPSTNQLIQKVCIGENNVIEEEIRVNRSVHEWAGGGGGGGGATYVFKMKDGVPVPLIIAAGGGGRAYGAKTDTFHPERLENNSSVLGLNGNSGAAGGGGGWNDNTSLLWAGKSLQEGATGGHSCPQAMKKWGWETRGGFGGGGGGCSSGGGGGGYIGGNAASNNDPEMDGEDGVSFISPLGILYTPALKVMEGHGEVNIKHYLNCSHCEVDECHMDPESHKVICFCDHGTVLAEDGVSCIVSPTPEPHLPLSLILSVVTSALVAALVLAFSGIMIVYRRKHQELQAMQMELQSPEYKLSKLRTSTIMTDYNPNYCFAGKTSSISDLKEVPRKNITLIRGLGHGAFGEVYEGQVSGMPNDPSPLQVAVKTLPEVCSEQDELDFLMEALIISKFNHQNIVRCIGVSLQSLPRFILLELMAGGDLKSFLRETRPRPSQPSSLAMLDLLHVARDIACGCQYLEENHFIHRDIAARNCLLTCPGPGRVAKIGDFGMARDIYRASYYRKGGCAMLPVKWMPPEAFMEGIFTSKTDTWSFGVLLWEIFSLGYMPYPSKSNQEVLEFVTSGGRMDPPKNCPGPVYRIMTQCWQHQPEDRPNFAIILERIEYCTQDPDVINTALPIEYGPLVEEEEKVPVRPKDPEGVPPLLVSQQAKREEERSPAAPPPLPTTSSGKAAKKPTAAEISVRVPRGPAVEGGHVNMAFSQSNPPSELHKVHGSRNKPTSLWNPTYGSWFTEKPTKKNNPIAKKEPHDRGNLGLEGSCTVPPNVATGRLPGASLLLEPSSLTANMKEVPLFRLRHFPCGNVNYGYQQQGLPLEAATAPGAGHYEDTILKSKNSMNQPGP

T1 sequence (Q96RG2 whole entry): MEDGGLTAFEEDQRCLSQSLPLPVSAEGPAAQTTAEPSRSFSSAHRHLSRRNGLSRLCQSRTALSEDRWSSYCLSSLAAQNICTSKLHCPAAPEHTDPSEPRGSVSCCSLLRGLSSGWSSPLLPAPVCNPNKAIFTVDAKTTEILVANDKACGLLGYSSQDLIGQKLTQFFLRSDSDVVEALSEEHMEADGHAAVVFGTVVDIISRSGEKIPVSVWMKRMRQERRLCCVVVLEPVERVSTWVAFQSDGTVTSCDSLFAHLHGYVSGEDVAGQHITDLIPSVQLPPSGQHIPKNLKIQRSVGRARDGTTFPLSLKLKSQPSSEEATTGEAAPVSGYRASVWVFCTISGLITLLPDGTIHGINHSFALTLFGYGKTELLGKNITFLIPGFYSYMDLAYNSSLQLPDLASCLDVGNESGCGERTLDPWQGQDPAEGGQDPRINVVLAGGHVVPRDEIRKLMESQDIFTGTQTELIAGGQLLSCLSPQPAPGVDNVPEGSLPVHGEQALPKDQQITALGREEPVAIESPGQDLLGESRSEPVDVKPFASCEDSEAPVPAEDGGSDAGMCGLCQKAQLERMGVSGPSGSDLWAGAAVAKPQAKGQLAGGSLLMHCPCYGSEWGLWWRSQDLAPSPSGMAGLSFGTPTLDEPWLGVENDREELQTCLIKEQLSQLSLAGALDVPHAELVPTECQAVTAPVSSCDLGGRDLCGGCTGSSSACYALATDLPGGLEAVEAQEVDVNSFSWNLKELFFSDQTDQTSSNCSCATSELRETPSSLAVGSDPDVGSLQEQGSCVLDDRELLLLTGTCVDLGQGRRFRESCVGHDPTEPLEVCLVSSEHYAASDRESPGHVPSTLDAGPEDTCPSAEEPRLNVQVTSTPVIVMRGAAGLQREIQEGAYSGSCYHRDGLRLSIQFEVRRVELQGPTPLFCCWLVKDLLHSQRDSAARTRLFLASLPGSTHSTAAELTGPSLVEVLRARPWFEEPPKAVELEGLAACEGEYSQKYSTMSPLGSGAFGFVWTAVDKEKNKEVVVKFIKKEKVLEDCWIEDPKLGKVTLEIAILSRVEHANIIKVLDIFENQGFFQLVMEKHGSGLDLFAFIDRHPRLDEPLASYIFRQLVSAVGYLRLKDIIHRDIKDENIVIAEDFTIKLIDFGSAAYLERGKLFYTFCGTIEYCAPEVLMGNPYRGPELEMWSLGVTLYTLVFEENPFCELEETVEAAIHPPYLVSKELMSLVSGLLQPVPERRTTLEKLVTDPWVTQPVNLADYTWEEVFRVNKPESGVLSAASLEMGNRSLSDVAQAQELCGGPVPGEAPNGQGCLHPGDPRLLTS
T4 sequence (P10721 26-976 D816H): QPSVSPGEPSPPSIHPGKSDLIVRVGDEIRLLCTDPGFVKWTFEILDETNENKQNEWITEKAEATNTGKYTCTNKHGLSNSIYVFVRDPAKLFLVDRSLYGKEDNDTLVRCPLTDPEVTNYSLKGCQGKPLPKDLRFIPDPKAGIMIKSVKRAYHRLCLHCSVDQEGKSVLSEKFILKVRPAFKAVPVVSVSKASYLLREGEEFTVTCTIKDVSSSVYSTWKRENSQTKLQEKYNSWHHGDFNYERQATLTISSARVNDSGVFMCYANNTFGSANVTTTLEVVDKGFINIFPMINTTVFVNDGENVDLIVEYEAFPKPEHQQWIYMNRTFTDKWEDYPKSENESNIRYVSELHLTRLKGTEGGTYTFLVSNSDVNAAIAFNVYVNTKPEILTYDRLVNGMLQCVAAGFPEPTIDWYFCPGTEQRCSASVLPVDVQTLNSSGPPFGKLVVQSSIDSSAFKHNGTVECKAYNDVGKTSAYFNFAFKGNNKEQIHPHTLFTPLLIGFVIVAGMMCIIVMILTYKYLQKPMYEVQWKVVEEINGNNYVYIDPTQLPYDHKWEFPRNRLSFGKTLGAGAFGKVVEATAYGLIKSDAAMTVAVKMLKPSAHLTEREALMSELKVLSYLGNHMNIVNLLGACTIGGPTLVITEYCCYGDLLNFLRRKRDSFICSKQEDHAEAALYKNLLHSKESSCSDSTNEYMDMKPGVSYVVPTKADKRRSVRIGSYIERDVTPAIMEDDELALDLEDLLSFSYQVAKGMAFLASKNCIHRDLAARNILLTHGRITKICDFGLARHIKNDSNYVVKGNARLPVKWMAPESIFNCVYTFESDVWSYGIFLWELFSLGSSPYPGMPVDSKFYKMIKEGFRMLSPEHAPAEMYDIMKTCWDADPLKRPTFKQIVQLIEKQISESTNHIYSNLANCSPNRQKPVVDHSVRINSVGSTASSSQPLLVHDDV
T3 sequence (P34947 whole entry): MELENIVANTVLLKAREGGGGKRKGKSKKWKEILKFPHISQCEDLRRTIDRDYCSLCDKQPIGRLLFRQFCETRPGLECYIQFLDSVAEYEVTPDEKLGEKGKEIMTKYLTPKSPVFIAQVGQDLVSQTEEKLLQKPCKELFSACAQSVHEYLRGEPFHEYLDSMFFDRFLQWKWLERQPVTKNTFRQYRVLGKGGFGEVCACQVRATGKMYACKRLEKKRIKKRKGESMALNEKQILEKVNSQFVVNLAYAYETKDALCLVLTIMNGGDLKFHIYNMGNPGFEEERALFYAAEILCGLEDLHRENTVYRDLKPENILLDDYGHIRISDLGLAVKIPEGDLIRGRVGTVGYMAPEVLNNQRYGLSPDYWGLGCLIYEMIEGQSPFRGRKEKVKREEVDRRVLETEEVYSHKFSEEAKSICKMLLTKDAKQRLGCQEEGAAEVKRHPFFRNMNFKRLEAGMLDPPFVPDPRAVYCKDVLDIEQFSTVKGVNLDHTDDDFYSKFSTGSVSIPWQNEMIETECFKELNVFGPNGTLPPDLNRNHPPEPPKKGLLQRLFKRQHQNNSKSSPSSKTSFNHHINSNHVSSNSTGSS

Work on Cn1ncc(Cl)c1-c1cc(C(=O)N[C@H](CN)Cc2ccc(F)c(F)c2)oc1Cl [GSK2141795] yielded an inhibition at 0.5 µM ([1]; 0.5 µM, read-out: % Inhibition) of 11%, an inhibition at 10 µM ([1]; 10 µM, read-out: % Inhibition) of 49% and an inhibition at 0.5 µM ([2]; 0.5 µM, read-out: % Inhibition) of 6%. It also gave an inhibition at 10 µM ([2]; 10 µM, read-out: % Inhibition) of 12%, an inhibition at 0.5 µM ([3]; 0.5 µM, read-out: % Inhibition) of 4% and an inhibition at 10 µM ([3]; 10 µM, read-out: % Inhibition) of 43%. The inhibition at 0.5 µM ([4]; 0.5 µM, read-out: % Inhibition) was -15%, the inhibition at 10 µM ([4]; 10 µM, read-out: % Inhibition) was 43% and the inhibition at 0.5 µM ([5]; 0.5 µM, read-out: % Inhibition) was -5%. For the same molecule, the inhibition at 10 µM ([5]; 10 µM, read-out: % Inhibition) was -2%, the inhibition at 0.5 µM ([6]; 0.5 µM, read-out: % Inhibition) was 101% and the inhibition at 10 µM ([6]; 10 µM, read-out: % Inhibition) was 100%. The inhibition at 0.5 µM ([7]; 0.5 µM, read-out: % Inhibition) was -8% and the inhibition at 10 µM ([7]; 10 µM, read-out: % Inhibition) was -4%.

Cn1ncc(Cl)c1-c1cc(C(=O)N[C@H](CN)Cc2cccc(F)c2)sc1Cl [GSK2110183] showed an inhibition at 0.5 µM [1] of 4%, an inhibition at 10 µM [1] of 45% and an inhibition at 0.5 µM [2] of -14%. For the same molecule, the inhibition at 10 µM [2] was -10%, the inhibition at 0.5 µM [3] was -8% and the inhibition at 10 µM [3] was -1%. The inhibition at 0.5 µM [4] was -6%, the inhibition at 10 µM [4] was -3% and the inhibition at 0.5 µM [5] was -7%. The inhibition at 10 µM [5] was 12%, the inhibition at 0.5 µM [6] was 101% and the inhibition at 10 µM [6] was 101%. The inhibition at 0.5 µM [7] was -22% and the inhibition at 10 µM [7] was 0%.

— publication PMC4076210, “Discovery of Novel AKT Inhibitors with Enhanced Anti-Tumor Effects in Combination with the MEK Inhibitor” (PLoS ONE, 2014)
